Measured values: the NIST ThermoML archive (doi:10.1016/j.fluid.2016.02.018)
± gives the expanded uncertainty stated by the source.

Details: 293.2 K; 101.33 kPa; Liquid; Vibrating tube method

SMILES | mass density [kg/m3]
CCn1cc[n+](C)c1.N#CN=C=[N-] [1-ethyl-3-methylimidazolium dicyanamide] | 1104.9 ± 1.1
CC[n+]1ccc(C)cc1.O=S(=O)([N-]S(=O)(=O)C(F)(F)F)C(F)(F)F | 1489.9 ± 0.7
